Results: patent US20250099356A1, “PERSONAL CARE COMPOSITION WITH N-CAPRYLOYL L-GLUTAMINE AND GLYCERYL MONOUNDECYLENATE AS PRESERVATIVE” (GALAXY SURFACTANTS LTD., priority 2024, published 2025)

Key:
[1] = tested on: Aspergillus niger ATCC 16404; test: Minimum inhibitory concentration (PCPC protocol); format: cell-based; conditions: Mold
Description: (§1) The MIC (minimum inhibitory concentrations) of N-capryloyl L-glutamine and glyceryl monoundecylenate and 1:1 mixture (by weight) of the two antimicrobials against various microbes are determined as per PCPC (Personal Care Product Council, Washington, USA) protocol.

[2] = tested on: Burkholderia cepacia ATCC 25416; test: Minimum inhibitory concentration (PCPC protocol); format: cell-based; conditions: Gram negative
Description: as §1

[3] = tested on: Candida albicans ATCC 10231; test: Minimum inhibitory concentration (PCPC protocol); format: cell-based; conditions: Yeast
Description: as §1

[4] = tested on: Candida glabrata ATCC 66032; test: Minimum inhibitory concentration (PCPC protocol); format: cell-based; conditions: Yeast
Description: as §1

[5] = tested on: Corynebacterium xerosis ATCC 373; test: Minimum inhibitory concentration (PCPC protocol); format: cell-based; conditions: Gram positive
Description: as §1

[6] = tested on: Cutibacterium acnes ATCC 6919; test: Minimum inhibitory concentration (PCPC protocol); format: cell-based; conditions: Gram positive
Description: as §1

[7] = tested on: Escherichia coli ATCC 8739; test: Minimum inhibitory concentration (PCPC protocol); format: cell-based; conditions: Gram negative
Description: as §1

[8] = tested on: Gardnerella vaginalis ATCC 14018; test: Minimum inhibitory concentration (PCPC protocol); format: cell-based; conditions: Gram variable
Description: as §1

[9] = tested on: Malassezia furfur ATCC 14521; test: Minimum inhibitory concentration (PCPC protocol); format: cell-based; conditions: Yeast
Description: as §1

[10] = tested on: Malassezia restricta ATCC MYA 4611; test: Minimum inhibitory concentration (PCPC protocol); format: cell-based; conditions: Yeast
Description: as §1

[11] = tested on: Micrococcus luteus NCIM 2103; test: Minimum inhibitory concentration (PCPC protocol); format: cell-based; conditions: Gram positive
Description: as §1

[12] = tested on: Pseudomonas aeruginosa ATCC 15442; test: Minimum inhibitory concentration (PCPC protocol); format: cell-based; conditions: Gram negative
Description: as §1

[13] = tested on: Staphylococcus aureus ATCC 6538; test: Minimum inhibitory concentration (PCPC protocol); format: cell-based; conditions: Gram positive; b76: at skin pH of 5.5
Description: as §1

[14] = tested on: Staphylococcus epidermidis NCIM 2493; test: Minimum inhibitory concentration (PCPC protocol); format: cell-based; conditions: Gram positive, b76: at skin pH of 5.5
Description: as §1

[15] = tested on: Staphylococcus hominis MTCC 8980; test: Minimum inhibitory concentration (PCPC protocol); format: cell-based; conditions: Gram positive
Description: as §1

Malassezia yeast = test: Minimum inhibitory concentration, Malassezia yeast; format: cell-based; conditions: species not given
Description: as §1

bacteria, yeast and mold = test: Challenge test (preservation efficacy) in cleansing surfactant composition of Table 2a; format: cell-based; conditions: for challenge test / preservation efficacy test: 1.5% level in the same formulation, pH 5.5 and 7.0
From the text: In an embodiment several personal care compositions of various types have been tested for the preservation efficacy of the combination of N-capryloyl L-glutamine and glyceryl monoundecylenate using PCPC (Personal Care Products Council, Washington DC, formerly known as CTFA) protocol ('Evaluation of preservatives to protect cosmetics' by D. Orth in Cosmetics and Toiletries, March 91). […] Both ‘rinse-off’ and ‘leave-on’ formulations (Examples 5 to 10) passed the challenge tests. Using the typical surfactant composition two sets are prepared at different pHs, 5.5 and 7.0. Antimicrobials individually and in combination are tested for preservation efficacy. [table]

[16] = Biodegradability, OECD 301D-Closed Bottle Test
From the text: N-capryloyl L-glutamine and glyceryl monoundecylenate, derived from renewable sources, are compatible with most used ingredients of the personal care compositions.

[17] = antimicrobial 1.5% in total in cleansing formulation of Table 2a, pH 5.5
[18] = antimicrobial 1.5% in total in cleansing formulation of Table 2a, pH 7.0
[19] = antimicrobial 2.0% in cleansing formulation of Table 2a, pH 5.5
[20] = antimicrobial 2.0% in total in cleansing formulation of Table 2a, pH 7.0
[21] = deployed alone at 2% in the surfactant composition, at both acidic and neutral pH (5.5 and 7.0)

Structure (SMILES)	MIC in % Aspergillus niger ATCC 16404 [1]	MIC in % Burkholderia cepacia ATCC 25416 [2]	MIC in % Candida albicans ATCC 10231 [3]	MIC in % Candida glabrata ATCC 66032 [4]	MIC in % Corynebacterium xerosis ATCC 373 [5]	MIC in % Cutibacterium acnes ATCC 6919 [6]	MIC in % Escherichia coli ATCC 8739 [7]	MIC in % Gardnerella vaginalis ATCC 14018 [8]	MIC in % Malassezia furfur ATCC 14521 [9]	MIC in % Malassezia restricta ATCC MYA 4611 [10]	MIC in % Micrococcus luteus NCIM 2103 [11]	MIC in % Pseudomonas aeruginosa ATCC 15442 [12]	MIC in % Staphylococcus aureus ATCC 6538 [13]	MIC in % Staphylococcus epidermidis NCIM 2493 [14]	MIC in % Staphylococcus hominis MTCC 8980 [15]	MIC against Malassezia yeast (Malassezia yeast)	challenge test / preservation efficacy test (bacteria, yeast and mold)	Challenge Test (bacteria, yeast and mold; [17])	Challenge Test (bacteria, yeast and mold; [18])	Challenge Test (bacteria, yeast and mold; [19])	also measured
C=CCCCCCCCCC(=O)OCC(O)CO (stereo not shown) [GMU, glyceryl monoundecylenate]	0.8%	1%	1%	0.4%	0.5%	0.9%	1%	0.3%	0.2%	0.2%	0.5%	1%	0.1%	1%	0.7%	0.2%	fail to pass the challenge test	Fails	Fails	Passes	MIC in % Staphylococcus epidermidis NCIM 2493 ([14]; listed as glyceryl mono undecylenate): 1.0%; MIC in % Staphylococcus epidermidis NCIM 2493 ([14]; listed as glyceryl monoundecylenate): 0.9%; Challenge Test (bacteria, yeast and mold; [20]): Passes; Challenge Test (bacteria, yeast and mold; [21]): preserve the composition; biodegradability as per OECD 301D-Closed Bottle Test [16]: completely biodegradable
CCCCCCCC(=O)N[C@@H](CCC(N)=O)C(=O)O [CG, N-capryloyl L-glutamine]	1%	1%	0.6%	0.6%	0.5%	0.2%	0.7%	0.6%	0.3%	0.4%	0.5%	0.7%	0.3%	0.9%	0.6%	0.2%	fail to pass the challenge test	Passes	Fails	Passes	MIC in % Staphylococcus epidermidis NCIM 2493 ([14]; listed as N-capryloyl L-glutamine): 1.0%; Challenge Test (bacteria, yeast and mold; [20]): Passes; Challenge Test (bacteria, yeast and mold; [21]): preserve the composition; biodegradability as per OECD 301D-Closed Bottle Test [16]: completely biodegradable
